In the assay the target is T1, Recombinant human EP300 containing the bromodomain (EP300-BD (1040-1161)) (Homo sapiens, UniProt Q09472).
T1 construct: Recombinant human EP300 bromodomain (EP300-BD (1040-1161)); made in house; host or cells: E. coli BL21-CodonPlus (DE3), modified pET vector
T1 sequence (Q09472 1040-1161): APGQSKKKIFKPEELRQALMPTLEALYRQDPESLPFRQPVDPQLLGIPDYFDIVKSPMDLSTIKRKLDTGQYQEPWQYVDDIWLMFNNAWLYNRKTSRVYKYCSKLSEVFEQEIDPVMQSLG
In words: EP300 Alphascreen binding assay. The essentials:
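Displacement of a biotinylated acetyl-K56 histone H3 peptide from the N-His bromodomain construct (1040-1161) measured by AlphaScreen proximity, beads at 7.5 μg/ml final, read 60 min after addition. Protein, peptide and compound first incubated 1 h at room temperature, pH 7.5 HEPES buffer; IC50 by four-parameter logistic fit.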

Each structure is given as a SMILES string.

The results in this text go back to US11446287B2, “Compounds and methods for EP300 or CBP modulation and indications therefor” (Opna Immuno-Oncology SA, priority 2019, dated 2022).

With `Cc1noc(C)c1-c1cnc2c(CC3CCC3)cn(-c3c(Cl)cc(C(=O)O)cc3Cl)c2c1` [P-0074, 3,5-dichloro-4-(3-(cyclobutylmethyl)-6-(3,5-dimethylisoxazol-4-yl)-1H-pyrrolo[3,2-b]pyridin-1-yl)benzoic acid], the half-inhibitory concentration (IC50) was 0.1 to 1000 nM.
Next, `Cc1cc(C(=O)O)cnc1-n1cc(CC2CCC2)c2ncc(-c3c(C)noc3C)cc21` [P-0075, 6-(3-(cyclobutylmethyl)-6-(3,5-dimethylisoxazol-4-yl)-1H-pyrrolo[3,2-b]pyridin-1-yl)-5-methylnicotinic acid]: 0.1 to 1000 nM; `Cc1noc(C)c1-c1cnc2c(CC3CCC3)cn(-c3ccc(C#N)cc3)c2c1` [P-0076, 4-(3-(cyclobutylmethyl)-6-(3,5-dimethylisoxazol-4-yl)-1H-pyrrolo[3,2-b]pyridin-1-yl)benzonitrile]: 1000 to 8000 nM; `Cc1noc(C)c1-c1cnc2c(CC3CCC3)cn(-c3ccnc(C#N)c3)c2c1` [P-0077, 4-(3-(cyclobutylmethyl)-6-(3,5-dimethylisoxazol-4-yl)-1H-pyrrolo[3,2-b]pyridin-1-yl)picolinonitrile]: 0.1 to 1000 nM.
As for `Cc1noc(C)c1-c1cnc2c(c1)c(-c1cccc(C(=O)NC#N)c1)cn2Cc1ccccc1` [P-0078, 3-(1-benzyl-5-(3,5-dimethylisoxazol-4-yl)-1H-pyrrolo[2,3-b]pyridin-3-yl)-N-cyanobenzamide], the half-maximal inhibitory concentration (IC50) fell in the range of 0.1 to 1000 nM.
For the compound `Cc1noc(C)c1-c1cnc2c(c1)c(-c1cccc(C(=O)NO)c1)cn2Cc1ccccc1` [P-0079, 3-(1-benzyl-5-(3,5-dimethylisoxazol-4-yl)-1H-pyrrolo[2,3-b]pyridin-3-yl)-N-hydroxybenzamide], the IC50 lay within 0.1 to 1000 nM.
On to `Cc1noc(C)c1-c1cnc2c(c1)c(-c1ccc(C(=O)O)cc1)cn2C(C)c1ccccn1` (centres unmarked) [P-0080, 4-(5-(3,5-dimethylisoxazol-4-yl)-1-(1-(pyridin-2-yl)ethyl)-1H-pyrrolo[2,3-b]pyridin-3-yl)benzoic acid], for which the IC50 was 1000 to 8000 nM.
Next, `Cc1noc(C)c1-c1cnc2c(c1)c(-c1cccc(S(N)(=O)=O)c1)cn2Cc1ccccc1` [P-0081, 3-(1-benzyl-5-(3,5-dimethylisoxazol-4-yl)-1H-pyrrolo[2,3-b]pyridin-3-yl)benzenesulfonamide]: 0.1 to 1000 nM.
Take `CNS(=O)(=O)c1cccc(-c2cn(Cc3ccccc3)c3ncc(-c4c(C)noc4C)cc23)c1` [P-0082, 3-(1-benzyl-5-(3,5-dimethylisoxazol-4-yl)-1H-pyrrolo[2,3-b]pyridin-3-yl)-N-methylbenzenesulfonamide]: the IC50 lay within 1000 to 8000 nM.
For the compound `Cc1noc(C)c1-c1cnc2c(c1)c(-c1cccc(S(=O)(=O)NC3CC3)c1)cn2Cc1ccccc1` [P-0083, 3-(1-benzyl-5-(3,5-dimethylisoxazol-4-yl)-1H-pyrrolo[2,3-b]pyridin-3-yl)-N-cyclopropylbenzenesulfonamide], the IC50 is 0.1 to 1000 nM.
Under `Cc1noc(C)c1-c1cnc2c(C(=O)C3CC3)c(O)n(-c3ccnc(C(=O)O)c3)c2c1` [P-0084, 4-(3-(cyclopropanecarbonyl)-6-(3,5-dimethylisoxazol-4-yl)-2-hydroxy-1H-pyrrolo[3,2-b]pyridin-1-yl)picolinic acid] stands 0.1 to 1000 nM.
Under `Cc1noc(C)c1-c1cnc2c(c1)c(-c1cccc(C(=O)O)c1)cn2C(=O)c1ccccc1` [P-0085, 3-(1-benzoyl-5-(3,5-dimethylisoxazol-4-yl)-1H-pyrrolo[2,3-b]pyridin-3-yl)benzoic acid] stands 0.1 to 1000 nM; under `Cc1noc(C)c1-c1cnc2c(CC3CCC3)cn(-c3c(C(=O)O)ccc(Br)c3F)c2c1` [P-0086, 4-bromo-2-(3-(cyclobutylmethyl)-6-(3,5-dimethylisoxazol-4-yl)-1H-pyrrolo[3,2-b]pyridin-1-yl)-3-fluorobenzoic acid], 0.1 to 1000 nM.
Under `COc1c(-n2cc(CC3CCC3)c3ncc(-c4c(C)noc4C)cc32)ccc(C(=O)O)c1F` [P-0087, 4-(3-(cyclobutylmethyl)-6-(3,5-dimethylisoxazol-4-yl)-1H-pyrrolo[3,2-b]pyridin-1-yl)-2-fluoro-3-methoxybenzoic acid] stands 0.1 to 1000 nM.
